Earlier results, collected in patent publication US20250360119A1, “THIAZOLIDINEDIONES FOR THE TREATMENT OF MUSCULAR DYSTROPHIES” (The Johns Hopkins University, priority 2022, published 2025).

What was measured:
[1] = clinical studies
aged mice = conditions: injected into the muscle directly

Question: With `CC1(COc2ccc(CC3SC(=O)NC3=O)cc2)CCCCC1` (stereo not shown) [ciglitazone, 5-[4-(1-methylcyclohexylmethoxy)benzyl]-thiazolidine-2,4-dione] as the molecule, how does the blood glucose levels (KKAy mice) read?
Answer: Its blood glucose levels is “reduce blood glucose levels without increasing insulin secretion”.

Question: What about the peripheral insulin resistance (KKAy mice) of the same molecule?
Answer: The peripheral insulin resistance was “reduce peripheral insulin resistance”.

Question: With `CN(CCOc1ccc(CC2SC(=O)NC2=O)cc1)c1ccccn1` (stereo not shown) [rosiglitazone] as the molecule, how does the cardiovascular toxicity [1] read?
Answer: The cardiovascular toxicity was “no longer considered significant issues”.

B1: recombinant GDF3: recombinant Growth Differentiation Factor 3, a member of the TGFβ family (protein, UniProt Q9NR23 251-364, looked up)
Growth/differentiation factor …: AAIPVPKLSCKNLCHRHQLFINFRDLGWHKWIIAPKGFMANYCHGECPFSLTISLNSSNYAFMQALMHAVDPEIPQAVCIPTKLSPISMLYQDNNDNVILRHYEDMVVDECGCG
Question: With B1 as the molecule, how does the “delay in muscle regeneration after CTX injury” value (aged mice) read?
Answer: The value was “able to alleviate some of the delay”.
